Source: patent US10183950B2, “Thienopyrimidine inhibitors of atypical protein kinase C” (Cancer Research Technology Limited, priority 2011, dated 2019)
pIC50: −log10 of the molar value.

What follows are compounds tested against T1, full-length human PKCι (Homo sapiens, UniProt P41743) (assay: PKCι IC50 IMAP fluorescence polarisation assay, full-length enzyme). Settings: full length PKCi at 15 μM ATP; read-out: IC50 in IMAP assay against full length PKCi.
T1 construct: Recombinant, full-length human PKCι expressed in Sf21 insect cells is also commercially available; purchased; host or cells: Sf21 insect cells
T1 sequence (P41743 1-596): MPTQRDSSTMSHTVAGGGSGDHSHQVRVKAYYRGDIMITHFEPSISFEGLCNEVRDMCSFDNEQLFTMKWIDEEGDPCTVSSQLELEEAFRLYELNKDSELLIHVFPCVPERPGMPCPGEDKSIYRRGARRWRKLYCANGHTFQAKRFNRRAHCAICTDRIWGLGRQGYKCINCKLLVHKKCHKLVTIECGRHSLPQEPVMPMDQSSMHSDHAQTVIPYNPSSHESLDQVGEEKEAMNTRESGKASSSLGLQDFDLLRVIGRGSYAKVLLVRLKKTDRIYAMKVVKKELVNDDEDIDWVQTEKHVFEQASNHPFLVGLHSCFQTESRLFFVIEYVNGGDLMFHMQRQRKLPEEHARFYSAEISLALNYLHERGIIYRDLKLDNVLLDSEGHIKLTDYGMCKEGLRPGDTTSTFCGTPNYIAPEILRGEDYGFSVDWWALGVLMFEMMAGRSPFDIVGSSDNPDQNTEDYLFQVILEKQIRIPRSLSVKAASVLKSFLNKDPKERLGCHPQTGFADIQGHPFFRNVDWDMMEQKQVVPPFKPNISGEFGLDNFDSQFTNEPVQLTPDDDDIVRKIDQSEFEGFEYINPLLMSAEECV
Type: biochemical

Compound	pIC50
COc1cccc(Cl)c1-c1c(C)sc2c(NC[C@@H](N)Cc3ccccc3)nc(-c3ccncc3)nc12 [compound 453, (S)-N*1*-[7-(2-Chloro-6-methoxy-phenyl)-6-methyl-2-pyridin-4-yl-thieno[3,2-d]pyrimidin-4-yl]-3-phenyl-propane-1,2-diamine]	4.40 to 5.00
Cc1ccc(Nc2cc(-c3nc(N[C@@H]4CCNC4)c4sccc4n3)ccn2)nn1 [compound 588, {2-[2-(6-Methyl-pyridazin-3-ylamino)-pyridin-4-yl]-thieno[3,2-d]pyrimidin-4-yl}-(R)-pyrrolidin-3-yl-amine]	6.00 to 7.00
Cc1sc2c(NCC(C)N)nc(-c3ccncc3)nc2c1Br (stereo in doubt) [compound 330, (R)-N*1*-(7-Bromo-6-methyl-2-pyridin-4-yl-thieno[3,2-d]pyrimidin-4-yl)-propane-1,2-diamine]	5.00 to 6.00
N[C@H](CNc1nc(-c2ccncc2)nc2c(C#CC3(O)CCC3)csc12)Cc1ccccc1 [compound 539, 1-[4-((S)-2-Amino-3-phenyl-propylamino)-2-pyridin-4-yl-thieno[3,2-d]pyrimidin-7-ylethynyl]-cyclobutanol]	> 7.00
CN1CC[C@@H](Nc2nc(-c3ccnc(NC(=O)c4cccs4)c3)nc3ccsc23)C1 [compound 628, Thiophene-2-carboxylic acid {4-[4-((R)-1-methyl-pyrrolidin-3-ylamino)-thieno[3,2-d]pyrimidin-2-yl]-pyridin-2-yl}-amide]	5.00 to 6.00
CN1CCN(c2ccc(C(=O)Nc3cc(-c4nc(N[C@@H]5CCNC5)c5sccc5n4)ccn3)cc2)CC1 [compound 620, 4-(4-Methyl-piperazin-1-yl)-N-{4-[4-((R)-pyrrolidin-3-ylamino)-thieno[3,2-d]pyrimidin-2-yl]-pyridin-2-yl}-benzamide]	6.00 to 7.00
Cc1sc2c(NC[C@@H](N)Cc3ccccc3)nc(-c3ccncc3)nc2c1-c1cc(Cl)ccc1OC(C)C [compound 460, (S)-N*1*-[7-(5-Chloro-2-isopropoxy-phenyl)-6-methyl-2-pyridin-4-yl-thieno[3,2-d]pyrimidin-4-yl]-3-phenyl-propane-1,2-diamine]	4.40 to 5.00
O=C(Nc1cc(-c2nc(N[C@@H]3CCNC3)c3sccc3n2)ccn1)N1CCCCC1 [compound 584, Piperidine-1-carboxylic acid {4-[4-((R)-pyrrolidin-3-ylamino)-thieno[3,2-d]pyrimidin-2-yl]-pyridin-2-yl}-amide]	5.00 to 6.00
c1cc(-c2nc(N[C@@H]3CCNC3)c3sccc3n2)cc(Sc2cc(-c3nc(N[C@@H]4CCNC4)c4sccc4n3)ccn2)n1 [compound 632]	5.00 to 6.00
F[C@H]1CN(Cc2ccccc2)C[C@@H]1Nc1nc(-c2ccncc2)nc2ccsc12 [compound 315, ((3S,4S)-1-Benzyl-4-fluoro-pyrrolidin-3-yl)-(2-pyridin-4-yl-thieno[3,2-d]pyrimidin-4-yl)-amine]	4.40 to 5.00
O=C(Nc1cc(-c2nc(N[C@@H]3CCNC3)c3sccc3n2)ccn1)c1ccc(F)cc1 [compound 618, 4-Fluoro-N-{4-[4-((R)-pyrrolidin-3-ylamino)-thieno[3,2-d]pyrimidin-2-yl]-pyridin-2-yl}-benzamide]	6.00 to 7.00
CCC[C@@H](C)[C@H](O)C#Cc1csc2c(NC[C@@H](N)Cc3ccccc3)nc(-c3ccncc3)nc12 [compound 522, (S)-1-[4-((S)-2-Amino-3-phenyl-propylamino)-2-pyridin-4-yl-thieno[3,2-d]pyrimidin-7-yl]-4-methyl-hept-1-yn-3-ol]	5.00 to 6.00
CC(C)(O)C#Cc1csc2c(N[C@@H]3CCNC3)nc(-c3ccncc3)nc12 [compound 514, 2-Methyl-4-[2-pyridin-4-yl-4-((R)-pyrrolidin-3-ylamino)-thieno[3,2-d]pyrimidin-7-yl]-but-3-yn-2-ol]	6.00 to 7.00

More lines, now with the values ahead:

pIC50	Compound
> 7.00	N[C@H](CNc1nc(-c2ccncc2)nc2c(/C=C/C3CC3)csc12)Cc1ccccc1 [compound 405, (S)-N*1*-[7-((E)-2-Cyclopropyl-vinyl)-2-pyridin-4-yl-thieno[3,2-d]pyrimidin-4-yl]-3-phenyl-propane-1,2-diamine]
6.00 to 7.00	N[C@H](CNc1nc(-c2ccncc2)nc2c(C#CCCF)csc12)Cc1ccccc1 [compound 546, (S)-N*1*-[7-(4-Fluoro-but-1-ynyl)-2-pyridin-4-yl-thieno[3,2-d]pyrimidine]
6.00 to 7.00	N[C@@H](CNc1nc(-c2ccncc2)nc2c(-c3ccn[nH]3)csc12)Cc1ccccc1 [compound 414, (R)-3-Phenyl-N*1*-[7-(1H-pyrazol-3-yl)-2-pyridin-4-yl-thieno[3,2-d]pyrimidin-4-yl]-propane-1,2-diamine]
6.00 to 7.00	N[C@H](CNc1nc(-c2ccncc2)nc2c(C(=O)NC3CC3)csc12)Cc1ccccc1 [compound 556, 4-((S)-2-Amino-3-phenyl-propylamino)-2-pyridin-4-yl-thieno[3,2-d]pyrimidine-7-carboxylic acid cyclopropylamide]
> 7.00	N[C@H](CNc1nc(-c2ccncc2)nc2c(Br)csc12)Cc1ccccc1 [compound 336, (S)—N*1*-(7-Bromo-2-pyridin-4-yl-thieno[3,2-d]pyrimidin-4-yl)-3-phenyl-propane-1,2-diamine]
> 7.00	CC(C)(O)C#Cc1csc2c(NC[C@@H](N)Cc3ccccc3)nc(-c3ccncc3)nc12 [compound 510, 4-[4-((S)-2-Amino-3-phenyl-propylamino)-2-pyridin-4-yl-thieno[3,2-d]pyrimidin-7-yl]-2-methyl-but-3-yn-2-ol]
6.00 to 7.00	N[C@H](CNc1nc(-c2ccncc2)nc2c(Nc3ncccn3)csc12)Cc1ccccc1 [compound 488, N*4*-((S)-2-Amino-3-phenyl-propyl)-2-pyridin-4-yl-N*7*-pyrimidin-2-yl-thieno[3,2-d]pyrimidine-4,7-diamine]
4.40 to 5.00	Cc1ncccc1-c1c(C)sc2c(NC[C@@H](N)Cc3ccccc3)nc(-c3ccncc3)nc12 [compound 459, (S)-N*1*-[6-Methyl-7-(2-methyl-pyridin-3-yl)-2-pyridin-4-yl-thieno[3,2-d]pyrimidin-4-yl]-3-phenyl-propane-1,2-diamine]
> 7.00	N[C@H](CNc1nc(-c2ccncc2)nc2c(C#CCO)csc12)Cc1ccccc1 [compound 515, 3-[4-((S)-2-Amino-3-phenyl-propylamino)-2-pyridin-4-yl-thieno[3,2-d]pyrimidin-7-yl]-prop-2-yn-1-ol]
5.00 to 6.00	N[C@H](CNc1nc(-c2ccncc2)nc2c(Nc3ccncn3)csc12)Cc1ccccc1 [compound 489, N*4*-((S)-2-Amino-3-phenyl-propyl)-2-pyridin-4-yl-N*7*-pyrimidin-4-yl-thieno[3,2-d]pyrimidine-4,7-diamine]
> 7.00	Cc1cc(Nc2csc3c(NC[C@@H](N)Cc4ccccc4)nc(-c4ccncc4)nc23)no1 [compound 490, N*4*-((S)-2-Amino-3-phenyl-propyl)-N*7*-(5-methyl-isoxazol-3-yl)-2-pyridin-4-yl-thieno[3,2-d]pyrimidine-4,7-diamine]
> 7.00	C[C@@H](O)C#Cc1csc2c(NC[C@@H](N)Cc3ccccc3)nc(-c3ccncc3)nc12 [compound 534, (R)-4-[4-((S)-2-Amino-3-phenyl-propylamino)-2-pyridin-4-yl-thieno[3,2-d]pyrimidin-7-yl]-but-3-yn-2-ol]
5.00 to 6.00	CC(C)Cn1cc(-c2csc3c(NC[C@@H](N)Cc4ccccc4)nc(-c4ccncc4)nc23)cn1 [compound 394, (S)-N*1*-[7-(1-Isobutyl-1H-pyrazol-4-yl)-2-pyridin-4-yl-thieno[3,2-d]pyrimidin-4-yl]-3-phenyl-propane-1,2-diamine]

Same assay, conditions: full length PKCi at 15 μM ATP; read-out: IC50 in IMAP assay against full length PKCi (Activity)

pIC50	Compound
5.00 to 6.00	NCCNc1nc(-c2ccncc2)nc2sc3c(c12)CCC1(C3)OCCO1 [compound 42]
6.00 to 7.00	N[C@H](CNc1nc(-c2ccncc2)nc2sc3c(c12)CCCC3)Cc1cccnc1 [compound 57, (S)-3-Pyridin-3-yl-N*1*-(2-pyridin-4-yl-5,6,7,8-tetrahydro-benzo[4,5]thieno[2,3-d]pyrimidin-4-yl)-propane-1,2-diamine]
4.40 to 5.00	CN(C)CC(=O)N1CCc2c(sc3nc(-c4ccncc4)nc(NCCN)c23)C1 [compound 111, 1-[4-(2-Amino-ethylamino)-2-pyridin-4-yl-5,8-dihydro-6H-pyrido[4′,3′:4,5]thieno[2,3-d]pyrimidin-7-yl]-2-dimethylamino-ethanone]
5.00 to 6.00	N[C@H](CNc1nc(-c2ccncc2)nc2sc3c(c12)CCCC3)Cc1ccc(F)cc1 [compound 50, (S)-3-(4-Fluoro-phenyl)-N*1*-(2-pyridin-4-yl-5,6,7,8-tetrahydro-benzo[4,5]thieno[2,3-d]pyrimidin-4-yl)-propane-1,2-diamine]
4.40 to 5.00	CC(C)(C)C(=O)N1CCc2c(sc3nc(-c4ccncc4)nc(NCCN)c23)C1 [compound 104, 1-[4-(2-amino-ethylamino)-2-pyridin-4-yl-5,8-dihydro-6H-pyrido[4′,3′:4,5]thieno[2,3-d]pyrimidin-7-yl]-2,2-dimethyl-propan-1-one]
5.00 to 6.00	N[C@H](CNc1nc(-c2ccncc2O)nc2sc3c(c12)CCCC3)Cc1ccccc1 [compound 103, 4-[4-((S)-2-Amino-3-phenyl-propylamino)-5,6,7,8-tetrahydro-benzo[4,5]thieno[2,3-d]pyrimidin-2-yl]-pyridin-3-ol]
